Data published in patent US20230114728A1 (Venatorx Pharmaceuticals, Inc., priority 2019, published 2023).
Values after ≈ are worked out from the molar mass of the structure shown.

How the values were obtained:
Test in all cases: Broth microdilution MIC in CAMHB
Format in all cases: cell-based
[1] = tested on: E. coli AG100; conditions: Escherichia coli; MHB; wild-type parent strain E. coli AG100; read-out: Minimum Inhibitory Concentration, E. coli AG100
Protocol: (§1) Example III: In Vitro Antibacterial Assays
(§2) To determine the ability of test compounds to inhibit the growth of bacterial strains, classic cell based broth microdilution minimum inhibitory concentration (MIC) assays were employed. MIC assays are performed according to CLSI methods except where otherwise noted (CLSI, 2018 and CLSI, 2019). The reference type strain E. coli ATCC 25922; the wild-type parent strain E. coli AG100; the hyper-permeable E. coli 901C and E. coli D22; and the E. coli AG100A strain lacking the acrAB efflux pump encoding genes were used to determine the ability of the PBP inhibitors to penetrate the outer membrane of gram-negative bacteria and inhibit bacterial growth. […] The P. aeruginosa ATCC 27853 and A. baumannii ATCC 19606, along with the hyper-permeable P. aeruginosa ATCC 35151 and an engineered efflux pump-compromised strain of P. aeruginosa (ΔmexAB-oprM) were used to determine the ability of PBP inhibitors to penetrate the outer membrane of P. aeruginosa and A. baumannii and assess antibacterial activity against these important gram-negative organisms.
(§3) Briefly, cryo-preserved bacterial cultures of challenge strains are streaked for isolation on appropriate agar medium, in this case cation-adjusted Mueller Hinton agar. Following incubation to allow growth of the colonies, plates are sealed with parafilm and stored refrigerated for up to two weeks. For preparation of assay inoculum and to ensure low variability, at least 5 colonies are picked from the agar plates with an inoculating loop and aseptically transferred to a culture tube containing 3 mL of cation-adjusted Mueller Hinton broth (CAMHB). The broth culture is grown for 3-5 hours at 37° C. with shaking at 200 rpm. Meanwhile, 2-fold serial dilutions of test compounds are conducted in a 96-well plate with a final volume of 75 μL per well at 2-fold the final desired concentration. After the dilution plates are set up the growing cultures are then diluted in a cuvette containing CAMHB and the optical density is measured at 600 nm. The inoculum is diluted such that 75 μL of this culture in CAMHB results in a starting bacterial concentration of 2-8×10^5 CFU/mL when added to the dilution plates. The plates are incubated for 16-20 hours for Enterobacteriaceae and Pseudomonas and 20-24 hours for Acinetobacter at 37° C. The MIC values are read visually as the lowest concentration well with no bacterial growth.

[2] = tested on: E. coli D22; conditions: Escherichia coli; MHB; hyper-permeable E. coli D22; read-out: Minimum Inhibitory Concentration, E. coli D22
Protocol: as §1, §2, §3

[3] = tested on: E. coli AG100A; conditions: Escherichia coli, read-out: Minimum Inhibitory Concentration, E. coli AG100A
Protocol: as §1, §2, §3

[4] = tested on: K. pneumoniae SI-117 producing VIM-1; conditions: Klebsiella pneumoniae, read-out: Minimum Inhibitory Concentration, K. pneumoniae SI-117
Protocol: as §1, §2, §3

[5] = tested on: E. coli ATCC 25922; conditions: Escherichia coli, ATCC25922; MHB; E. coli ATCC 25922; read-out: Minimum Inhibitory Concentration, E. coli 25922
Protocol: as §1, §2, §3

[6] = tested on: A. baumannii ATCC 19606; conditions: Acinetobacter baumannii, ATCC19606; MHB; read-out: Minimum Inhibitory Concentration, A. baumannii ATCC 19606
Protocol: as §1, §2, §3

[7] = tested on: K. pneumoniae UMM producing SHV-5 and KPC-2; conditions: Klebsiella pneumoniae, read-out: Minimum Inhibitory Concentration, K. pneumoniae UMM
Protocol: as §1, §2, §3

[8] = tested on: K. pneumoniae 848844 producing SHV-11 and KPC-2; conditions: Klebsiella pneumoniae, read-out: Minimum Inhibitory Concentration, K. pneumoniae 848844
Protocol: as §1, §2, §3

[9] = tested on: P. aeruginosa ATCC 27853; conditions: Pseudomonas aeruginosa, ATCC27853; MHB; read-out: Minimum Inhibitory Concentration, P. aeruginosa ATCC 27853
Protocol: as §1, §2, §3

[10] = tested on: P. aeruginosa ATCC 35151; conditions: Pseudomonas aeruginosa, ATCC35151; MHB; hyper-permeable strain; read-out: Minimum Inhibitory Concentration, P. aeruginosa ATCC 35151
Protocol: as §1, §2, §3

[11] = tested on: E. coli 901C; conditions: Escherichia coli; MHB; hyper-permeable E. coli 901C; read-out: Minimum Inhibitory Concentration, E. coli 901C
Protocol: as §1, §2, §3

[12] = tested on: P. aeruginosa (ΔmexAB-oprM); conditions: Pseudomonas aeruginosa, read-out: Minimum Inhibitory Concentration, P. aeruginosa ΔmexAB-OprM
Protocol: as §1, §2, §3

Row | Compound | MIC [1] [µg/mL] | MIC [2] [µg/mL] | MIC [3] [µg/mL] | MIC [4] [µg/mL] | MIC [5] [µg/mL] | MIC [6] [µg/mL] | MIC [7] [µg/mL] | MIC [8] [µg/mL] | MIC [9] [µg/mL] | MIC [10] [µg/mL] | MIC [11] [µg/mL] | MIC [12] [µg/mL]
1 | NC1(CN2CCN(C(=O)NC(C(=O)N[C@H]3Cc4cccc(C(=O)O)c4OB3O)c3cc(F)c(O)c(F)c3F)C(=O)C2=O)CC1 (single isomer, unassigned) [Example 245] | > 128 | > 128 | > 128 | 8 to 16 (≈ 12.9 to 25.8 µM) | > 128 | > 128 | 2 to 4 (≈ 3.23 to 6.46 µM) | > 128 | > 128 | 0.5 to 1 (≈ 0.807 to 1.61 µM) | > 128 | 8 to 16 (≈ 12.9 to 25.8 µM)
2 | Nc1nc(C(=O)NC(C(=O)N[C@H]2Cc3cccc(C(=O)O)c3OB2O)c2c(F)cc(O)cc2F)cs1 (stereo partly drawn) [Example 251, (3R)-3-(2-(2-aminothiazole-4-carboxamido)-2-(2,6-difluoro-4-hydroxyphenyl)acetamido)-2-hydroxy-3,4-dihydro-2H-benzo[e][1,2]oxaborinine-8-carboxylic acid] | > 128 | > 128 | > 128 | 8 to 16 (≈ 15.4 to 30.9 µM) | > 128 | > 128 | 2 to 4 (≈ 3.86 to 7.72 µM) | > 128 | > 128 | 2 to 4 (≈ 3.86 to 7.72 µM) | > 128 | 32 to 64 (≈ 61.7 to 123 µM)
3 | NCCCN1CCN(C(=O)N[C@@H](C(=O)N[C@H]2Cc3cccc(C(=O)O)c3OB2O)c2cc(F)c(O)c(F)c2F)C(=O)C1=O (single isomer, unassigned) [Example 246] | > 128 | 32 to 64 (≈ 52.7 to 105 µM) | > 128 | 8 to 16 (≈ 13.2 to 26.3 µM) | 32 to 64 (≈ 52.7 to 105 µM) | > 128 | 2 to 4 (≈ 3.29 to 6.59 µM) | > 128 | > 128 | 0.5 to 1 (≈ 0.823 to 1.65 µM) | > 128 | 8 to 16 (≈ 13.2 to 26.3 µM)
4 | C[C@H]1CN(CCN)C(=O)C(=O)N1C(=O)N[C@@H](C(=O)N[C@H]1Cc2cccc(C(=O)O)c2OB1O)c1ccc(O)c(F)c1F [Example 242, (3R)-3-(2-((S)-4-(2-aminoethyl)-6-methyl-2,3-dioxopiperazine-1-carboxamido)-2-(2,3-difluoro-4-hydroxyphenyl)acetamido)-2-hydroxy-3,4-dihydro-2H-benzo[e][1,2]oxaborinine-8-carboxylic acid] | 32 to 64 (≈ 54.3 to 109 µM) | 8 to 16 (≈ 13.6 to 27.2 µM) | 32 to 64 (≈ 54.3 to 109 µM) | 2 to 4 (≈ 3.39 to 6.79 µM) | 8 to 16 (≈ 13.6 to 27.2 µM) | > 128 | 0.5 to 1 (≈ 0.848 to 1.7 µM) | 32 to 64 (≈ 54.3 to 109 µM) | > 128 | 0.5 to 1 (≈ 0.848 to 1.7 µM) | 32 to 64 (≈ 54.3 to 109 µM) | 8 to 16 (≈ 13.6 to 27.2 µM)
